Consider 15 compounds from patent publication US10004732B2 (Novartis AG, priority 2014, dated 2018).

In data set [1] the target is T1, PI 3-kinase alpha (Homo sapiens, UniProt P42336). In words: Kinase Glo Luminescent Kinase Assay (Kglo), assay A. It counts as biochemical. Conditions: read-out: Assay A PI3Kα IC50.
For data set [2], the target named is T2, PI 3-kinase beta (Homo sapiens, UniProt P42338). In words: Kinase Glo Luminescent Kinase Assay (Kglo), assay B. It counts as biochemical. Conditions: read-out: Assay B PI3Kβ IC50. (In general: Kinase-Glo measures the ATP left after a reaction by luminescence.)
In a further data set the target is Vps34 (Homo sapiens, UniProt Q8NEB9). In words: Kinase Glo Luminescent Kinase Assay (Kglo), assay C. Conditions: read-out: Assay C VPS34 IC50. The format is biochemical.
The target in another data set is PI 4-kinase beta (Homo sapiens, UniProt Q9UBF8). Kind of data set: Kinase Glo Luminescent Kinase Assay (Kglo), assay D. The conditions noted are these: read-out: Assay D PI4Kβ IC50. It counts as biochemical.
Data set [3] addresses T3, PI 3-kinase gamma (Homo sapiens, UniProt P48736). In words: TR-FRET Adapta assay, assay E. It counts as biochemical. The conditions noted are these: read-out: Assay E PI3Kγ IC50.
A further data set deals with mTOR (Homo sapiens, UniProt P42345). Kind of data set: Lanthascreen kinase binding assay, assay G. The conditions noted are these: read-out: Assay G mTOR IC50. On the technique in general: TR-FRET usually uses a lanthanide donor and a delayed reading to cut background.
Data set [4] addresses T3, PI 3-kinase gamma. In words: Cellular U937 AKT assay K1 (MSD). Conditions: U937 cells, K1 format; read-out: Assay K1 PI3Kγ IC50. The format is cell-based.
Data set [5] concerns the target T4, PI 3-kinase delta (Homo sapiens, UniProt O00329). Kind of data set: TR-FRET Adapta assay, assay F. The conditions noted are these: read-out: Assay F PI3Kδ IC50.
Target sequence in this assay (O00329 whole entry): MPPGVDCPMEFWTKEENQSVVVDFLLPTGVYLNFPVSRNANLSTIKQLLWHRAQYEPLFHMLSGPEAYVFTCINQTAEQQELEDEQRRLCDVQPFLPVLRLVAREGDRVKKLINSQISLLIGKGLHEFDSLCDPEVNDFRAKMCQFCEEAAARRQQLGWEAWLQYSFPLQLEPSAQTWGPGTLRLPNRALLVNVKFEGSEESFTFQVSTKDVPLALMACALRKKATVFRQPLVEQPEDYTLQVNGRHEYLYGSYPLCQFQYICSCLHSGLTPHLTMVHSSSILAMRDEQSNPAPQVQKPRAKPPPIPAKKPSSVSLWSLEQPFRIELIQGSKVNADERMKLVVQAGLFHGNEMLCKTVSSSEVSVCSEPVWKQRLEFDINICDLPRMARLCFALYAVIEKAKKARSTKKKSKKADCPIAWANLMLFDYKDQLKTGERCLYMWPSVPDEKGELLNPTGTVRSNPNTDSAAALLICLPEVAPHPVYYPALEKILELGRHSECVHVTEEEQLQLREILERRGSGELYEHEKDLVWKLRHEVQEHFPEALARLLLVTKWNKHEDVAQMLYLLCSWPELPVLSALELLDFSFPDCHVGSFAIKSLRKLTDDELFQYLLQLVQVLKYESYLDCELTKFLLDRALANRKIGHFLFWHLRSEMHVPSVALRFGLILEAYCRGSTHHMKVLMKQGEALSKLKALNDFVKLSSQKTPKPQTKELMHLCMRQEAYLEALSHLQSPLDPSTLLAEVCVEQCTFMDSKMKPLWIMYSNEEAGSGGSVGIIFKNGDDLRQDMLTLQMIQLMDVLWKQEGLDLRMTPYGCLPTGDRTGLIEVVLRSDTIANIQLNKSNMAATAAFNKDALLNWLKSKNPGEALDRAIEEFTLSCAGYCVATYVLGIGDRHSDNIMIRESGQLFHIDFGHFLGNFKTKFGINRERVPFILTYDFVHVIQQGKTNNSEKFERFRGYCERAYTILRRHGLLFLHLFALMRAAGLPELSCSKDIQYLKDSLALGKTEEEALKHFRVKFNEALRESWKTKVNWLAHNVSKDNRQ
Target sequence in this assay (P27986 461-568 partner): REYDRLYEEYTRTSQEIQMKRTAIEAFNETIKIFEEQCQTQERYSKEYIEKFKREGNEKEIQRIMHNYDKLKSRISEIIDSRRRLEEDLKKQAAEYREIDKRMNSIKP
Protocol: TR-FRET Adapta Assay for PI 3-Kinase Gamma (E), PI 3-Kinase Delta (F)
The TR-FRET Adapta™ Universal Kinase Assay Kit was purchased from Invitrogen Corporation (Carlsbad/CA, USA) (Cat. No. PV5099).
PIK3CD substrate phosphatidylinositol (PI) was obtained from Invitrogen (vesicules consisting of 2 mM phosphatidylinositol (PI) in 50 mM HEPES pH7.5; Cat. No. PV5371). PIK3CG substrate phosphatidylinositol-4,5-bisphosphate (PIP(4,5)2 was obtained from Invitrogen (PIP2:PS large unilamellar vesicules consisting of 1 mM PIP2: 19 mM PS in 50 mM HEPES pH7.5, 3 mM MgCl2, 1 mM EGTA; Cat. No. PV5100).
Time-Resolved Fluorescence Resonance Energy Transfer (TR-FRET) is a technology based on energy transfer between two adjacent dyes, from an excited electron in one dye (the donor) to an electron of an adjacent dye (the acceptor) through resonance, then released as a photon. This energy transfer is detected by an increase in the fluorescence emission of the acceptor, and a decrease in the fluorescence emission of the donor. TR-FRET assays for protein kinases use a long-lifetime lanthanide Terbium or Europium chelates as the donor species which overcome interference from compound autofluorescence or light scatter from precipitated compounds, by introducing a delay after excitation by a flashlamp excitation source. Results are often expressed as a ratio of the intensities of the acceptor and donor fluorophores. The ratiometric nature of such a value corrects for differences in assay volumes between wells, as well as corrects for quenching effects due to colored compounds. The Adapta™ assay can be divided into two phases: a kinase reaction phase and an ADP detection phase. In the kinase reaction phase, all kinase reaction components are added to the well and the reaction is allowed to incubate for a set period of time specific for each kinase. […] In the presence of an inhibitor, the amount of ADP formed by the kinase reaction is reduced, and the resulting intact antibody-tracer interaction maintains a high TR-FRET signal.
50 nL of compound dilutions were dispensed onto white 384-well small volume polystyrene plate. Then 5 μL of either PI 3-kinase gamma or PI 3-kinase delta and lipid substrate (PI or PIP2:PS) followed by 5 μL of ATP (final assay volume 10 μL) are incubated at RT. The standard reaction buffer for the Adapta™ TR-FRET assay contained 10 mM Tris-HCl pH 7.5, 3 mM MgCl2, 50 mM NaCl, 1 mM DTT, 0.05% CHAPS 3-[(3-cholamidopropyl)dimethylammonio]-1-propanesulfonate).
Data are analyzed using Excel fit software or Graphpad Prism. IC50 values were derived by fitting a sigmoidal dose-response curve to a plot of assay readout over inhibitor concentration. All fits were performed with the program XLfit4 (ID Business Solutions, Guildford, UK). […] All fits were performed with the program XLfit4 (ID Business Solutions, Guildford, UK).
A short description of data set [6]: Microsomal clearance assay (M). Conditions: intrinsic clearance in rat liver microsomes. (Liver microsomes are a subcellular fraction often used to study metabolism.)
Protocol: The experiments were performed in 96-well glass plates at 37° C. on an automated Tecan EVO platform. Test compounds at a concentration of 10 mM in pure DMSO were diluted 1:1000 in water to 10 μM. […] Reactions were initiated by the addition of 150 μL of a cofactor solution containing 2 mM NADPH.
Data set [7] concerns the target T2, PI 3-kinase beta. Kind of data set: Cellular assay I1, p-Akt (S473) in Rat-1 cells, Surefire format. It counts as cell-based. Conditions: non-asterisked data: version I1 (Surefire format), Rat-1 cells; read-out: Assay I PI3Kβ IC50.
Target sequence in this assay (P42338 whole entry): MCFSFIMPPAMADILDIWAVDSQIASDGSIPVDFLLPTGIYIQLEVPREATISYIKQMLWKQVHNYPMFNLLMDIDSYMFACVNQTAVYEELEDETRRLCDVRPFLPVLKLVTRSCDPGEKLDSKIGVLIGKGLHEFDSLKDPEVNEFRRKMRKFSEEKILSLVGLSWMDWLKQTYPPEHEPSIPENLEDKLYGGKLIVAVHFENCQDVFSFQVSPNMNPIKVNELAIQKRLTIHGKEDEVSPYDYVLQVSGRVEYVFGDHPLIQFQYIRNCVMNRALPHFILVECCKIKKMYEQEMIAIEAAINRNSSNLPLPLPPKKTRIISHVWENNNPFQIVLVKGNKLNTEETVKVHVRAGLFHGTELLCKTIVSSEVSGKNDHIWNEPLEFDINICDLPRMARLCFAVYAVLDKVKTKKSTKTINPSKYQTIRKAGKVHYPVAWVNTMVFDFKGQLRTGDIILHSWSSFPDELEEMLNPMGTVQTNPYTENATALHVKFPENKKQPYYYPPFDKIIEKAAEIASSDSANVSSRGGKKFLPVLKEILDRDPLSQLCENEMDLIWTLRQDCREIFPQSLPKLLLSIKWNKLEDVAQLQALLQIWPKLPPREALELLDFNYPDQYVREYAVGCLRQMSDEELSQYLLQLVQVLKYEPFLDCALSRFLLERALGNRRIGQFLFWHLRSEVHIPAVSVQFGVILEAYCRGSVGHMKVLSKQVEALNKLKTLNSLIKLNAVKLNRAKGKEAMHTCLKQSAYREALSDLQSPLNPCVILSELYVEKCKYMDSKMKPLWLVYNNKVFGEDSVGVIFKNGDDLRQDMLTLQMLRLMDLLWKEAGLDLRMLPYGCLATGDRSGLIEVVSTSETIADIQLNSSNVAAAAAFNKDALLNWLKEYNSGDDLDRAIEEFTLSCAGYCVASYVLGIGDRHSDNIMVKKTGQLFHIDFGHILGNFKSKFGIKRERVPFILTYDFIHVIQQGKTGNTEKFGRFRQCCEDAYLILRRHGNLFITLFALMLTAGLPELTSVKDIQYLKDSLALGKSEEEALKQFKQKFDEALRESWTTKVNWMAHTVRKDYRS
Target sequence in this assay (Q63787 whole entry partner): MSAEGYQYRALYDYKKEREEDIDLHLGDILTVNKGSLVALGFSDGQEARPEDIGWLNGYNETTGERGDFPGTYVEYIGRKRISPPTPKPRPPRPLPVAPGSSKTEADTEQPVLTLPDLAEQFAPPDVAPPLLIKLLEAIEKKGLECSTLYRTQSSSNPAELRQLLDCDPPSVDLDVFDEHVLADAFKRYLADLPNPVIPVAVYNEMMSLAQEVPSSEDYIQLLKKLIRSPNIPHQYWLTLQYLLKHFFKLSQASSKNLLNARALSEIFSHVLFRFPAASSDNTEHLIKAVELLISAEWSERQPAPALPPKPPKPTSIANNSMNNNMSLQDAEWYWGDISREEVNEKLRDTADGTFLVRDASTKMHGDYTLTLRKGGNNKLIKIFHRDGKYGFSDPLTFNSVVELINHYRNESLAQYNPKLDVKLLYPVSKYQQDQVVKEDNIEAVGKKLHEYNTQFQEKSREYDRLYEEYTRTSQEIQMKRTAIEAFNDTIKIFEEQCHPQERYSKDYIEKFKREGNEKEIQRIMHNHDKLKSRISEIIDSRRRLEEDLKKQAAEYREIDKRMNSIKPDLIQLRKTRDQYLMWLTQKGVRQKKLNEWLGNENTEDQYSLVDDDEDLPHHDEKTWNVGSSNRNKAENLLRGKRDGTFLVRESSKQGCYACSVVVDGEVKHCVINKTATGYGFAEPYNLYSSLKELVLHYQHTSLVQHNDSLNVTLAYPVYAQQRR
The target in data set [8] is T4, PI 3-kinase delta. Kind of data set: Cellular assay J1, p-Akt (S473) in Rat-1 cells, Surefire format. It counts as cell-based. The conditions noted are these: non-asterisked data: version J1 (Surefire format), Rat-1 cells; read-out: Assay J PI3Kδ IC50.
Target sequence in this assay (O00329 whole entry): as the sequence (O00329 whole entry) above
Target sequence in this assay (Q63787 whole entry partner): as the sequence (Q63787 whole entry partner) above
Description: (§1) Cellular Assays for PI 3-Kinase Alpha (H1), Beta (I1) and Delta (J1): Surefire Format
(§2) AlphaScreen (Amplified Luminescent Proximity Homogeneous Assay, ALPHA, Perkin Elmer) is a non-radioactive bead-based proximity assay technology to study biomolecular interactions in a homogenous microtiter plate format. The brand name SureFire denotes AlphaScreen assays that are adapted to quantify the phosphorylation of endogenous cellular proteins in cell lysates, by using matched antibody pairs, which consist of an anti-phospho-kinase and an anti-kinase antibody. The assay allows characterization of kinase signaling in cells as well as measurement of kinase inhibitor effects.
(§3) Using Rat-1 cells stably expressing myr-HA-tagged versions of the human PI3Kdelta, PI3Kalpha, or PI3Kbeta p110 catalytic subunit isoforms, the assay was developed as a two-plate protocol in a 384-well format.
(§4) For compound testing, the cells were seeded at a density of 4000 (Rat-1_PI3Kdelta), 7500 (Rat-1_PI3Kalpha), or 6200 (Rat-1_PI3Kbeta) cells in 20 μl complete growth medium into cell culture treated 384-well plates and were grown at 37° C./5% CO2/90% humidity for 24 h. Shortly before compound transfer, the complete medium was removed, 30 μl assay buffer (DMEM high glucose, 1×MEM NEAA, 10 mM HEPES, 2 mM L-glutamine, 0.1% (w/v) BSA) was added and 10 μl of the compound predilutions were transferred to the cells.
Data set [9] addresses T1, PI 3-kinase alpha. Kind of data set: Cellular assay H1, p-Akt (S473) in Rat-1 cells, Surefire format. The format is cell-based. Conditions: non-asterisked data: version H1 (Surefire format), Rat-1 cells; read-out: Assay H PI3Kα IC50.
Description: as §1, §2, §3, §4

By IC50 is commonly meant the concentration at which inhibition is half-maximal.

Sequence of Vps34 (Q8NEB9 whole entry, species assumed): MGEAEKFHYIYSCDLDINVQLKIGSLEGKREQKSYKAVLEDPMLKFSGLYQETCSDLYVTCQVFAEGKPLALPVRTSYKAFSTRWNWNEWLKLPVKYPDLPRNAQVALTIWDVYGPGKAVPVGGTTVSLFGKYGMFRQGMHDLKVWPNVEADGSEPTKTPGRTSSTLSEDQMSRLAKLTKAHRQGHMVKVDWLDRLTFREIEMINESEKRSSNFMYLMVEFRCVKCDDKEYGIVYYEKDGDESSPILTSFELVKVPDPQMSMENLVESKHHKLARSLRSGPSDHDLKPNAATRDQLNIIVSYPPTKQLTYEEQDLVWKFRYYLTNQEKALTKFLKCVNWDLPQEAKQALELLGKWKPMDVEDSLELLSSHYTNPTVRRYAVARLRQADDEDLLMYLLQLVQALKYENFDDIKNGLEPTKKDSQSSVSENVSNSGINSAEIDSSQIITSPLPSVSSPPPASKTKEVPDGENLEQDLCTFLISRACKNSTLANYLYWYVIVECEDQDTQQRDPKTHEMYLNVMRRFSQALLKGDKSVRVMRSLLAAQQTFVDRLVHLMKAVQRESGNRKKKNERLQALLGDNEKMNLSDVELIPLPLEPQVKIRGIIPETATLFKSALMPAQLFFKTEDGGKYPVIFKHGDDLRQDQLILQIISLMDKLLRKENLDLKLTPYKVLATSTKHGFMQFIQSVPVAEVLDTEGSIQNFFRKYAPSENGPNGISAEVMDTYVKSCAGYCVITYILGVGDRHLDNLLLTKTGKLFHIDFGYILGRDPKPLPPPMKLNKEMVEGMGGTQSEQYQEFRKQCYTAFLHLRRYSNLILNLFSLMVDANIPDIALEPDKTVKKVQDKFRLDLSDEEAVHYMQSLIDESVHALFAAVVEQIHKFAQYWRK
T3 sequence (P48736 whole entry): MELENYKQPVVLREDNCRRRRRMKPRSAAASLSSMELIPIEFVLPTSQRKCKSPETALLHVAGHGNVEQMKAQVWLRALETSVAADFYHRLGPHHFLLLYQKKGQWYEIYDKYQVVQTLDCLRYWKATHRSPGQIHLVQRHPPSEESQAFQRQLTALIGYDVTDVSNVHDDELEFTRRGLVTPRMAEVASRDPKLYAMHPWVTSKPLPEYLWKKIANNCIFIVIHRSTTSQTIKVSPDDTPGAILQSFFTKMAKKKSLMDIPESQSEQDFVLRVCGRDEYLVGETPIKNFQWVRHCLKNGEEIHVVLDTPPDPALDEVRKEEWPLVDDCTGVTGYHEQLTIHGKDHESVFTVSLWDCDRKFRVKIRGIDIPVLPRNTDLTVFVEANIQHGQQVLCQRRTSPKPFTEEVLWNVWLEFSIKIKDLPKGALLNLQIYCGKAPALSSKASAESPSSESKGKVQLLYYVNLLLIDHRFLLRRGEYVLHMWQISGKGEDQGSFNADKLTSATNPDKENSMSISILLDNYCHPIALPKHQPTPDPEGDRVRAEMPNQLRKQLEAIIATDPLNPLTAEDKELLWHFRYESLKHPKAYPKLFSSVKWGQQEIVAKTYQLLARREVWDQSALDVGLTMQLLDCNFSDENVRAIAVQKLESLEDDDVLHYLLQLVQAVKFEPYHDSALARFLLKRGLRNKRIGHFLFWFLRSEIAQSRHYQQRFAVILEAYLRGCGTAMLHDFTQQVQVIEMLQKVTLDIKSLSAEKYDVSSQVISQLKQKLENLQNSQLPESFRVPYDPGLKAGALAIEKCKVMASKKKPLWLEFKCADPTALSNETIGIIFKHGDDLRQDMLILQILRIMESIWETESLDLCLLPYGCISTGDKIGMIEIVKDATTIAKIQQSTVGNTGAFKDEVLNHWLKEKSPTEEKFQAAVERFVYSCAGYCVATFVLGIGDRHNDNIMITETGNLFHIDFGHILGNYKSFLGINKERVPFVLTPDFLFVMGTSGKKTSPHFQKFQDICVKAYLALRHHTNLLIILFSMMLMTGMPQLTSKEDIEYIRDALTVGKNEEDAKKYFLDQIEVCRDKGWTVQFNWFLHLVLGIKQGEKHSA
Protocol for mTOR: Lanthascreen™ Kinase Binding Assay for mTOR (G)
Binding of an inhibitor to the kinase competes for binding with the tracer, resulting in a loss of FRET.
50 nL of compound dilutions were dispensed onto white 384-well small volume polystyrene plate.

As to `Cc1nc(-c2nc(-c3cc(S(=O)(=O)NCC(C)(C)O)ccc3C)cnc2N)c(C)s1` [Example 40, 3-(5-Amino-6-(2,5-dimethylthiazol-4-yl)pyrazin-2-yl)-N-(2-hydroxy-2-methylpropyl)-4-methylbenzenesulfonamide], the IC50 was 760 nM on PI 3-kinase alpha [1]; 1400 nM at PI 3-kinase beta [2]; over 10000 nM on Vps34; over 10000 nM on PI 4-kinase beta; 36 nM at PI 3-kinase gamma [3]; 3800 nM at mTOR. Besides, the IC50 on PI 3-kinase gamma [4] turned out to be 40 nM; at PI 3-kinase delta [5], 840 nM. The “Assay M RLM CI(int)” value in data set [6] turned out to be 92 µL/min/mg.
For `Cc1ccc(S(=O)(=O)NCCC(C)(C)O)cc1-c1cnc(N)c(-c2cc(C3CC3)no2)n1` [Example 78, 3-(5-Amino-6-(3-cyclopropylisoxazol-5-yl)pyrazin-2-yl)-N-(3-hydroxy-3-methylbutyl)-4-methylbenzenesulfonamide], the IC50 is 240 nM on PI 3-kinase alpha [1]; 2200 nM at PI 3-kinase beta [2]; over 9550 nM on Vps34; 1550 nM on PI 4-kinase beta; 13 nM at PI 3-kinase gamma [3]; 2350 nM at mTOR. For the same compound, the half-inhibitory concentration (IC50) at PI 3-kinase gamma [4] was determined as 66 nM; at PI 3-kinase delta [5], 180 nM. Besides, the “Assay M RLM CI(int)” value in data set [6] is 152 µL/min/mg.
For the compound `Cc1noc(-c2nc(-c3cc(S(=O)(=O)NC[C@H]4C[C@@H](O)C4)ccc3C)cnc2N)n1` [Example 96, 3-(5-Amino-6-(3-methyl-1,2,4-oxadiazol-5-yl)pyrazin-2-yl)-N-(((1s,3s)-3-hydroxycyclobutyl)methyl)-4-methylbenzenesulfonamide], the IC50 on PI 3-kinase alpha [1] is 550 nM; on PI 3-kinase beta [2], 3350 nM; at PI 4-kinase beta, over 9550 nM; at PI 3-kinase gamma [3] it was 92 nM; on mTOR, 8800 nM; at PI 3-kinase gamma [4], 276 nM. Also, on PI 3-kinase delta [5], the IC50 was 550 nM. For the same compound, the “Assay M RLM CI(int)” value in [6] turned out to be 62 µL/min/mg.
Take `Cc1ccc(S(=O)(=O)NC[C@H]2C[C@@H](O)C2)cc1-c1cnc(N)c(-c2cc(C3CC3)no2)n1` [Example 100, 3-(5-Amino-6-(3-cyclopropylisoxazol-5-yl)pyrazin-2-yl)-N-(((1s,3s)-3-hydroxycyclobutyl)methyl)-4-methylbenzenesulfonamide]: the IC50 on PI 3-kinase alpha [1] is 500 nM; on PI 3-kinase beta [2] it was 5300 nM; on Vps34, 7200 nM; on PI 4-kinase beta, 5750 nM; on PI 3-kinase gamma [3] it was 3 nM; on mTOR, over 9550 nM. Moreover, the IC50 was 74 nM at PI 3-kinase gamma [4] and 680 nM at PI 3-kinase delta [5]. Further, the “Assay M RLM CI(int)” value in [6] stood at 95 µL/min/mg.
Turning to `Cc1ccc(S(=O)(=O)NOCCN(C)C)cc1-c1cnc(N)c(-n2cncn2)n1` [Example 112.2, 3-(5-Amino-6-(1H-1,2,4-triazol-1-yl)pyrazin-2-yl)-N-(2-(dimethylamino)ethoxy)-4-methylbenzenesulfonamide], the IC50 is 860 nM on PI 3-kinase alpha [1]; 1300 nM at PI 3-kinase beta [2]; over 10000 nM at Vps34; 5400 nM on PI 4-kinase beta; 104 nM on PI 3-kinase gamma [3]; over 10000 nM on mTOR. Also, the IC50 is over 10000 nM on PI 3-kinase beta [7], over 10000 nM on PI 3-kinase delta [8], 137 nM at PI 3-kinase gamma [4] and 1200 nM at PI 3-kinase delta [5].
For `Cc1ccc(S(=O)(=O)NCCC(C)(C)O)cc1-c1cnc(N)c(-c2cccnc2Cl)n1` [Example 119.6], the IC50 on PI 3-kinase alpha [1] was 820 nM; on PI 3-kinase beta [2] it was over 9100 nM; on Vps34 it was 7990 nM; at PI 4-kinase beta, 7700 nM; on PI 3-kinase gamma [3], 161 nM; at mTOR it was 5610 nM. For the same compound, the IC50 was determined as 4070 nM at PI 3-kinase alpha [9]; 1720 nM on PI 3-kinase beta [7]; 2880 nM at PI 3-kinase delta [8]; 860 nM on PI 3-kinase gamma [4]; 380 nM at PI 3-kinase delta [5].
Turning to `Cc1cc(-c2nc(-c3cc(S(=O)(=O)NCCC(C)(C)O)ccc3C)cnc2N)n(C)n1` [Example 119.36], the IC50 on PI 3-kinase alpha [1] is 220 nM; on PI 3-kinase beta [2], 4410 nM; on Vps34, over 9100 nM; at PI 4-kinase beta it was over 9100 nM; on PI 3-kinase gamma [3], 34 nM; at mTOR, over 9100 nM. The IC50 at PI 3-kinase gamma [4] came out at 1280 nM; on PI 3-kinase delta [5], 170 nM. Besides, in data set [6], the “Assay M RLM CI(int)” value amounted to 48 µL/min/mg.
`Cc1csc(-c2nc(-c3cc(S(=O)(=O)NCCC(C)(C)O)ccc3C)cnc2N)c1` [Example 119.43]: the IC50 on PI 3-kinase alpha [1] is 250 nM; at PI 3-kinase beta [2], 1780 nM; on Vps34 it was over 9100 nM; at PI 4-kinase beta, over 9100 nM; on PI 3-kinase gamma [3], 54 nM; on mTOR, 3370 nM. Moreover, the IC50 at PI 3-kinase gamma [4] was 60 nM; at PI 3-kinase delta [5], 100 nM. The “Assay M RLM CI(int)” value in data set [6] is 136 µL/min/mg.
Regarding `Cc1ccc(S(=O)(=O)NCCC(C)(C)O)cc1-c1cnc(N)c(-c2cccs2)n1` [Example 119.45], the IC50 on PI 3-kinase alpha [1] was 150 nM; at PI 3-kinase beta [2], 3600 nM; on Vps34 it was over 9100 nM; on PI 4-kinase beta, 2460 nM; on PI 3-kinase gamma [3], 12 nM; at mTOR it was 8690 nM. The IC50 at PI 3-kinase gamma [4] is 85 nM; at PI 3-kinase delta [5], 100 nM. Besides, the “Assay M RLM CI(int)” value in data set [6] was 188 µL/min/mg.
Consider `Cc1ccc(S(=O)(=O)NCC2(CO)CCCC2)cc1-c1cnc(N)c(-n2cncn2)n1` [Example 127.25], for which the IC50 at PI 3-kinase alpha [1] was 130 nM; on PI 3-kinase beta [2], 650 nM; on Vps34 it was over 10000 nM; on PI 4-kinase beta, 4400 nM; at PI 3-kinase gamma [3] it was 31 nM; on mTOR, 3300 nM. Moreover, the IC50 on PI 3-kinase gamma [4] amounted to 66 nM; at PI 3-kinase delta [5], 340 nM. In addition, in data set [6], the “Assay M RLM CI(int)” value is 493 µL/min/mg.
Regarding `Cc1ccc(S(=O)(=O)NCCCF)cc1-c1cnc(N)c(-n2cncn2)n1` [Example 127.29], the IC50 was 240 nM at PI 3-kinase alpha [1]; 1800 nM at PI 3-kinase beta [2]; over 10000 nM at Vps34; 3900 nM on PI 4-kinase beta; 124 nM on PI 3-kinase gamma [3]; over 10000 nM on mTOR. For the same compound, the IC50 stood at 131 nM on PI 3-kinase gamma [4] and 640 nM on PI 3-kinase delta [5].
Regarding `Cc1ccc(S(=O)(=O)NCC(C)(C)N2CCOCC2)cc1-c1cnc(N)c(-n2cncn2)n1` [Example 127.32], the IC50 is 1800 nM on PI 3-kinase alpha [1]; 4600 nM at PI 3-kinase beta [2]; over 10000 nM on Vps34; over 10000 nM at PI 4-kinase beta; 140 nM on PI 3-kinase gamma [3]; 6700 nM at mTOR. Besides, the results for the IC50 at PI 3-kinase gamma [4] and at PI 3-kinase delta [5] were 1880 nM and 1200 nM, respectively.
For the compound `Cc1ccc(S(=O)(=O)NCC2COCCN2C)cc1-c1cnc(N)c(-c2cn(C)nc2C)n1` (centres unmarked) [Example 128.2, 3-(5-Amino-6-(1,3-dimethyl-1H-pyrazol-4-yl)pyrazin-2-yl)-4-methyl-N-((4-methylmorpholin-3-yl)methyl)benzenesulfonamide], the IC50 on PI 3-kinase alpha [1] was 270 nM; at Vps34, over 10000 nM; at PI 4-kinase beta it was over 10000 nM; at PI 3-kinase gamma [3] it was 49 nM; on PI 3-kinase alpha [9], 1910 nM; on PI 3-kinase delta [8], 1570 nM. Also, the figures for the IC50 on PI 3-kinase gamma [4] and on PI 3-kinase delta [5] were 90 nM and 450 nM, respectively. Further, the “Assay M RLM CI(int)” value in data set [6] stood at 27 µL/min/mg.
As for `Cc1cc(-c2nc(-c3cc(S(=O)(=O)NCCC(C)(O)C(F)(F)F)ccc3C)cnc2N)ccn1` (centres unmarked) [Example 129.13, 3-(5-amino-6-(2-methylpyridin-4-yl)pyrazin-2-yl)-4-methyl-N-(4,4,4-trifluoro-3-hydroxy-3-methylbutyl)benzenesulfonamide], the IC50 at PI 3-kinase alpha [1] was 300 nM; at PI 3-kinase beta [2] it was over 9100 nM; at Vps34, over 9100 nM; on PI 4-kinase beta, over 9100 nM; on PI 3-kinase gamma [3] it was 28 nM; at mTOR it was over 9100 nM. The IC50 was over 10000 nM at PI 3-kinase beta [7], 5860 nM at PI 3-kinase delta [8], 144 nM at PI 3-kinase gamma [4] and 260 nM on PI 3-kinase delta [5]. The “Assay M RLM CI(int)” value in [6] came to 170 µL/min/mg.
With `Cc1ccc(S(=O)(=O)NCC2COC2)cc1-c1cnc(N)c(-n2cncn2)n1` [Example 131, 3-(5-Amino-6-(1H-1,2,4-triazol-1-yl)pyrazin-2-yl)-4-methyl-N-(oxetan-3-ylmethyl)benzenesulfonamide], the IC50 at PI 3-kinase alpha [1] is 370 nM; on PI 3-kinase beta [2], 2450 nM; on Vps34 it was 4300 nM; on PI 4-kinase beta, 4950 nM; at PI 3-kinase gamma [3], 42 nM; on mTOR it was 3700 nM. Also, the figures for the IC50 on PI 3-kinase gamma [4] and on PI 3-kinase delta [5] were 493 nM and 760 nM, respectively. The “Assay M RLM CI(int)” value in data set [6] was 42 µL/min/mg.
